Reference: ChEMBL document CHEMBL1201862, “PubChem BioAssay data set” (2004)
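Where inhibition never reached the appropriate level, the endpoint shown equals the highest concentration tested. Otherwise, values were interpolated linearly from a five-concentration, 48-hour dose response in 96-well plates. Here, GI50 denotes the concentration required for 50% inhibition of growth.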 Calls of active or inactive are those of the source. No stated cut-off is given here; in the data, active = GI50 up to about 1.1 µM and inactive = higher.

Experiments:
Test in all cases: DTP human tumour cell line panel, 48 h
HL-60 = system: HL-60
SF-539 = system: SF-539
MOLT-4 = system: MOLT-4
RXF 393 = system: RXF 393
SNB-19 = system: SNB-19
SK-MEL-28 = system: SK-MEL-28
OVCAR-3 = system: OVCAR-3
UACC-257 = system: UACC-257
SR = system: SR
SN12C = system: SN12C
PC-3 = system: PC-3
KM12 = system: KM12
RPMI-8226 = system: RPMI-8226
HCT-116 = system: HCT-116
M14 = system: M14
NCI-H460 = system: NCI-H460
NCI-H23 = system: NCI-H23
CCRF-CEM = system: CCRF-CEM
HCT-15 = system: HCT-15
EKVX = system: EKVX

What does the source list for `CCOC(=O)c1sc2[n+](c1C)C(=O)/C(=C/c1ccc([N+](=O)[O-])cc1)S2`?
GI50 (HL-60): 75.7 µM (inactive); GI50 (SF-539): 21.2 µM (inactive); GI50 (MOLT-4): 22.2 µM (inactive); GI50 (RXF 393): 29.8 µM (inactive); GI50 (SNB-19): 45.2 µM (inactive); GI50 (SK-MEL-28): 27.4 µM (inactive); GI50 (OVCAR-3): 9.08 µM (inactive); GI50 (UACC-257): 28.1 µM (inactive); GI50 (SR): 24.3 µM (inactive); GI50 (SN12C): 36.6 µM (inactive); GI50 (PC-3): 18.9 µM (inactive); GI50 (KM12): 18.4 µM (inactive); GI50 (RPMI-8226): 10.4 µM (inactive); GI50 (HCT-116): 20.8 µM (inactive); GI50 (M14): 31.6 µM (inactive); GI50 (NCI-H460): 19.7 µM (inactive); GI50 (NCI-H23): 16.1 µM (inactive); GI50 (CCRF-CEM): > 100 µM (inactive)

Which GI50 (HL-60) does the source give for `CC(=O)c1c[nH]cc1CO` here?
The GI50 was > 10 µM (inactive).

And the GI50 (SF-539)?
The GI50 was > 10 µM (inactive).

And the GI50 (MOLT-4)?
The GI50 was > 10 µM (inactive).

What about the GI50 (RXF 393) of the same molecule?
Its GI50 is > 10 µM (inactive).

And the GI50 (SNB-19)?
The GI50 was > 10 µM (inactive).

And the GI50 (SK-MEL-28)?
The GI50 was > 10 µM (inactive).

What about the GI50 (OVCAR-3) of the same molecule?
The GI50 was > 10 µM (inactive).

What about the GI50 (SR) of the same molecule?
Its GI50 is > 10 µM (inactive).

And the GI50 (SN12C)?
The GI50 was > 10 µM (inactive).

What about the GI50 (HCT-15) of the same molecule?
The GI50 was over 10 µM.

What about the GI50 (PC-3) of the same molecule?
Its GI50 is > 10 µM (inactive).

What about the GI50 (KM12) of the same molecule?
The GI50 was > 10 µM (inactive).

What about the GI50 (RPMI-8226) of the same molecule?
The GI50 was > 10 µM (inactive).

And the GI50 (HCT-116)?
The GI50 was > 10 µM (inactive).

What about the GI50 (M14) of the same molecule?
Its GI50 is > 10 µM (inactive).

What about the GI50 (NCI-H460) of the same molecule?
Its GI50 is > 10 µM (inactive).

What about the GI50 (NCI-H23) of the same molecule?
Its GI50 is > 10 µM (inactive).

And the GI50 (CCRF-CEM)?
The GI50 was > 10 µM (inactive).

With `COc1nc2c(c(=O)[nH]1)N=C(c1ccc([N+](=O)[O-])cc1)CC(c1ccccc1)N2` (centres undefined) as the molecule, how does the GI50 (HL-60) read?
The GI50 was 16 µM (inactive).

And the GI50 (SF-539)?
Its GI50 is > 100 µM (inactive).

And the GI50 (MOLT-4)?
The GI50 was 54.3 µM (inactive).

What about the GI50 (RXF 393) of the same molecule?
Its GI50 is 94.6 µM (inactive).

And the GI50 (SNB-19)?
Its GI50 is > 100 µM (inactive).

What about the GI50 (SK-MEL-28) of the same molecule?
The GI50 was 94.8 µM (inactive).

What about the GI50 (OVCAR-3) of the same molecule?
The GI50 was > 100 µM (inactive).

What about the GI50 (UACC-257) of the same molecule?
The GI50 was > 100 µM (inactive).

And the GI50 (SR)?
Its GI50 is 99.1 µM (inactive).

And the GI50 (SN12C)?
Its GI50 is > 100 µM (inactive).

What about the GI50 (PC-3) of the same molecule?
The GI50 was 84.3 µM (inactive).

What about the GI50 (KM12) of the same molecule?
Its GI50 is 70.5 µM (inactive).

And the GI50 (RPMI-8226)?
Its GI50 is 44.1 µM (inactive).

What about the GI50 (HCT-116) of the same molecule?
Its GI50 is 34.5 µM (inactive).

And the GI50 (M14)?
Its GI50 is > 100 µM (inactive).

What about the GI50 (NCI-H460) of the same molecule?
Its GI50 is 73.6 µM (inactive).

And the GI50 (EKVX)?
The GI50 was 95.9 µM (inactive).

What about the GI50 (NCI-H23) of the same molecule?
The GI50 was 69.8 µM (inactive).

And the GI50 (CCRF-CEM)?
Its GI50 is 37.9 µM (inactive).

Which results are given for `COc1ccc2c(c1)c1c3c(ccc4ncn2c43)N(CCO)CCN=1`?
GI50 (HL-60): 0.165 µM (active); GI50 (SF-539): 0.0893 µM (active); GI50 (MOLT-4): 0.026 µM (active); GI50 (RXF 393): 0.211 µM (active); GI50 (SNB-19): 0.234 µM (active); GI50 (SK-MEL-28): 0.327 µM (active); GI50 (OVCAR-3): 0.213 µM (active); GI50 (UACC-257): 0.391 µM (active); GI50 (SR): 0.0198 µM (active); GI50 (SN12C): 0.158 µM (active); GI50 (HCT-15): 0.195 µM; GI50 (PC-3): 0.148 µM (active); GI50 (KM12): 0.26 µM (active); GI50 (RPMI-8226): 0.281 µM (active); GI50 (HCT-116): 0.0512 µM (active); GI50 (M14): 0.271 µM (active); GI50 (NCI-H460): 0.132 µM (active); GI50 (EKVX): 0.33 µM (active); GI50 (NCI-H23): 0.191 µM (active); GI50 (CCRF-CEM): 0.0476 µM (active)

Which results are given for `O=C1c2ccccc2CC12CCC1(CC2)OCCO1`?
GI50 (HL-60): > 100 µM (inactive); GI50 (SF-539): > 100 µM (inactive); GI50 (MOLT-4): > 100 µM (inactive); GI50 (RXF 393): > 100 µM (inactive); GI50 (SNB-19): > 100 µM (inactive); GI50 (SK-MEL-28): > 100 µM (inactive); GI50 (UACC-257): > 100 µM (inactive); GI50 (SR): > 100 µM (inactive); GI50 (SN12C): > 100 µM (inactive); GI50 (HCT-15): > 100 µM; GI50 (PC-3): > 100 µM (inactive); GI50 (KM12): > 100 µM (inactive); GI50 (RPMI-8226): > 100 µM (inactive); GI50 (HCT-116): > 100 µM (inactive); GI50 (M14): > 100 µM (inactive); GI50 (NCI-H460): > 100 µM (inactive); GI50 (EKVX): > 100 µM (inactive); GI50 (NCI-H23): > 100 µM (inactive); GI50 (CCRF-CEM): > 100 µM (inactive)

How did the GI50 (HL-60) turn out when `CCOC(=O)C(C)c1nc2cc3cccnc3c(Cl)c2[nH]c1=O` (centres undefined) was run?
The GI50 was > 100 µM (inactive).

And the GI50 (SF-539)?
Its GI50 is > 100 µM (inactive).

What about the GI50 (RXF 393) of the same molecule?
The GI50 was > 100 µM (inactive).

What about the GI50 (SNB-19) of the same molecule?
The GI50 was > 100 µM (inactive).

And the GI50 (SK-MEL-28)?
The GI50 was > 100 µM (inactive).

And the GI50 (UACC-257)?
The GI50 was > 100 µM (inactive).

And the GI50 (SR)?
Its GI50 is 73.6 µM (inactive).

What about the GI50 (HCT-15) of the same molecule?
Its GI50 is over 100 µM.

And the GI50 (PC-3)?
The GI50 was > 100 µM (inactive).

What about the GI50 (KM12) of the same molecule?
The GI50 was > 100 µM (inactive).

What about the GI50 (RPMI-8226) of the same molecule?
Its GI50 is 25.9 µM (inactive).

What about the GI50 (HCT-116) of the same molecule?
Its GI50 is > 100 µM (inactive).

And the GI50 (M14)?
Its GI50 is > 100 µM (inactive).

And the GI50 (NCI-H460)?
Its GI50 is 32.4 µM (inactive).

What about the GI50 (EKVX) of the same molecule?
The GI50 was > 100 µM (inactive).

What about the GI50 (NCI-H23) of the same molecule?
The GI50 was > 100 µM (inactive).

What about the GI50 (CCRF-CEM) of the same molecule?
The GI50 was > 100 µM (inactive).

Which results are given for `NC(Cc1ccccc1)C(=O)NC(Cc1ccccc1)NC(=O)C(Cc1c[nH]c2ccccc12)C(=O)O` (centres undefined)?
GI50 (HL-60): > 100 µM (inactive); GI50 (SF-539): > 100 µM (inactive); GI50 (RXF 393): > 100 µM (inactive); GI50 (SNB-19): > 100 µM (inactive); GI50 (SK-MEL-28): > 100 µM (inactive); GI50 (OVCAR-3): > 100 µM (inactive); GI50 (UACC-257): > 100 µM (inactive); GI50 (SR): > 100 µM (inactive); GI50 (SN12C): > 100 µM (inactive); GI50 (HCT-15): > 100 µM; GI50 (PC-3): > 100 µM (inactive); GI50 (KM12): > 100 µM (inactive); GI50 (RPMI-8226): > 100 µM (inactive); GI50 (HCT-116): > 100 µM (inactive); GI50 (M14): > 100 µM (inactive); GI50 (NCI-H460): > 100 µM (inactive); GI50 (EKVX): > 100 µM (inactive); GI50 (NCI-H23): > 100 µM (inactive); GI50 (CCRF-CEM): > 100 µM (inactive)

For `N#CC(C#N)=C/C=C/c1ccccc1[N+](=O)[O-]`, which GI50 (HL-60) is on record?
The GI50 was 6.05 µM (inactive).

What about the GI50 (SF-539) of the same molecule?
Its GI50 is 6.76 µM (inactive).

And the GI50 (MOLT-4)?
Its GI50 is 4.54 µM (inactive).

What about the GI50 (RXF 393) of the same molecule?
The GI50 was 2.31 µM (inactive).

And the GI50 (SNB-19)?
The GI50 was > 10 µM (inactive).

And the GI50 (SK-MEL-28)?
Its GI50 is 2.11 µM (inactive).

What about the GI50 (OVCAR-3) of the same molecule?
Its GI50 is 4.98 µM (inactive).

What about the GI50 (UACC-257) of the same molecule?
The GI50 was 2.68 µM (inactive).

And the GI50 (SR)?
The GI50 was 3.54 µM (inactive).

What about the GI50 (SN12C) of the same molecule?
Its GI50 is > 10 µM (inactive).

And the GI50 (HCT-15)?
The GI50 was 7.08 µM.

What about the GI50 (PC-3) of the same molecule?
Its GI50 is 5.06 µM (inactive).

And the GI50 (KM12)?
Its GI50 is 5.02 µM (inactive).

What about the GI50 (RPMI-8226) of the same molecule?
Its GI50 is 3.19 µM (inactive).

What about the GI50 (HCT-116) of the same molecule?
The GI50 was 1.87 µM (inactive).

And the GI50 (NCI-H460)?
Its GI50 is 9.57 µM (inactive).

What about the GI50 (EKVX) of the same molecule?
The GI50 was > 10 µM (inactive).

What about the GI50 (NCI-H23) of the same molecule?
Its GI50 is 4.45 µM (inactive).

What about the GI50 (CCRF-CEM) of the same molecule?
The GI50 was 7.57 µM (inactive).
